{"source": "ChEMBL document CHEMBL5154649", "about": "“Design, synthesis, and characterization of novel aminoalcohol quinolines with strong in vitro antimalarial activity” (Eur J Med Chem, 2022)", "key": {"[1]": {"experiment": "Drug metabolism in human liver microsomes assessed as oxidative metabolite formation measured after 5 mins by LC-MS analysis", "format": "ADME, Microsome"}, "Plasmodium falciparum [2]": {"tested_on": "Plasmodium falciparum", "experiment": "Selectivity index, ratio of IC50 for antiplasmodial activity against CQ-susceptible Plasmodium falciparum 3D7 to IC50 for antiplasmodial activity CQ-resistant Plasmodium falciparum W2 by HRP2-ELISA", "format": "functional"}, "[3]": {"experiment": "Apparent permeability across apical to basolateral side in human Caco-2/TC7 cells at 20 uM incubated for 2 hrs by LC-MS/MS analysis", "format": "ADME, cell-based, Caco2/TC7"}, "Cytochrome P450 3A4 [4]": {"biological_target": "T1, Cytochrome P450 3A4 (Homo sapiens, UniProt P08684)", "T1 sequence (P08684 whole entry)": "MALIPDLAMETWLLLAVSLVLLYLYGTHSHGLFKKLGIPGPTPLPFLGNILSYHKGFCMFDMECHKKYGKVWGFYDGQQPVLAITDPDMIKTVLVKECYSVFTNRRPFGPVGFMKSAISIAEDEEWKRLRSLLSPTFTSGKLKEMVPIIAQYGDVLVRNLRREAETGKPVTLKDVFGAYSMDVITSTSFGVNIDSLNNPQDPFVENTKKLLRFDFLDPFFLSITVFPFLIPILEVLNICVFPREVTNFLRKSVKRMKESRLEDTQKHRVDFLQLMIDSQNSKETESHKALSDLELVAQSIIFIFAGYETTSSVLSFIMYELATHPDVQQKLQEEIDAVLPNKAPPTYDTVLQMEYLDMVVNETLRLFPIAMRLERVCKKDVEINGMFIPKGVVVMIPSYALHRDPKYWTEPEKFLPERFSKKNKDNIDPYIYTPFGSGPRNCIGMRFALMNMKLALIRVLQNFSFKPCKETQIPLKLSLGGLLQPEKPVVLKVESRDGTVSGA", "experiment": "Inhibition of CYP3A4 in human liver microsomes assessed as reduction in 6-beta-hydroxy-testosterone formation using testosterone as substrate preincubated for 20 mins in presence of NADPH followed by incubation with substrate for 10 mins by LC-MS/MS analysis", "format": "ADME, Microsome"}, "[5]": {"experiment": "Metabolic stability in mouse liver microsomes assessed as intrinsic clearance at 0.5 uM incubated for 30 mins by LC-MS/MS analysis", "format": "ADME, Microsome", "details": "read-out: CLH"}, "Plasmodium falciparum [6]": {"tested_on": "Plasmodium falciparum", "experiment": "Antiplasmodial activity against CQ-susceptible Plasmodium falciparum 3D7 assessed as inhibition of parasite growth measured after 48 hrs by SYBR Green 1 dye based fluorescence assay", "format": "functional, organism-based", "details": "3D7, 48 h"}, "[7]": {"experiment": "Selectivity index, ratio of IC50 for cytotoxicity against human THP-1 cells to IC50 for antiplasmodial activity against Plasmodium falciparum 3D7 infected in human erythrocytes by HRP2-ELISA", "format": "toxicity, cell-based", "details": "read-out: Ratio IC50"}, "Plasmodium falciparum [8]": {"tested_on": "Plasmodium falciparum", "experiment": "Antiplasmodial activity against CQ-susceptible Plasmodium falciparum 3D7 infected in human erythrocytes assessed as inhibition of parasite growth measured after 72 hrs by HRP2-ELISA", "format": "functional, organism-based", "details": "3D7, Erythrocyte"}, "[9]": {"experiment": "Metabolic stability in rat liver microsomes assessed as intrinsic clearance at 0.5 uM incubated for 30 mins by LC-MS/MS analysis", "format": "ADME, Microsome", "details": "read-out: CLH"}, "[10]": {"experiment": "Drug metabolism in rat liver microsomes assessed as oxidative metabolite formation measured after 5 mins by LC-MS analysis", "format": "ADME, Microsome"}, "Plasmodium falciparum [11]": {"tested_on": "Plasmodium falciparum", "experiment": "Selectivity index, ratio of IC50 for antiplasmodial activity against CQ-susceptible Plasmodium falciparum 3D7 to IC50 for antiplasmodial activity against CQ-resistant Plasmodium falciparum W2 by SYBR Green 1 dye based fluorescence assay", "format": "functional"}, "Cytochrome P450 3A4 [12]": {"biological_target": "T1, Cytochrome P450 3A4", "experiment": "Inhibition of CYP3A4 in human liver microsomes assessed as reduction in 6-beta-hydroxy-testosterone formation using testosterone as substrate preincubated for 20 mins in absence of NADPH followed by incubation with substrate for 10 mins by LC-MS/MS analysis", "format": "ADME, Microsome"}, "[13]": {"experiment": "Selectivity index, ratio of IC50 for human HFF cells to IC50 for antiplasmodial activity against Plasmodium falciparum 3D7 infected in human erythrocytes by HRP2-ELISA", "format": "toxicity, cell-based", "details": "read-out: Ratio IC50"}, "[14]": {"experiment": "Cytotoxicity against Chinese hamster CHO cells assessed as reduction in cell viability incubated for 24 hrs by MTT assay", "format": "toxicity, cell-based, Cricetulus griseus"}, "[15]": {"experiment": "Genotoxicity in CHO-K1 cells at 0.001 to 1 mM incubated for 3 hrs in presence of S9 mix by in vitro micronucleus test", "format": "toxicity, cell-based, Cricetulus griseus", "details": "chinese hamster, cho-k1, 3 h, 1000 µM, dose 0.001-1 mM"}, "[16]": {"experiment": "Apparent permeability across apical to basolateral side in human Caco-2/TC7 cells assessed as drug recovery at 20 uM incubated for 2 hrs by LC-MS/MS analysis", "format": "ADME, cell-based, Caco2/TC7", "details": "read-out: Drug recovery"}, "[17]": {"experiment": "Metabolic stability in human liver microsomes assessed as intrinsic clearance at 0.5 uM incubated for 30 mins by LC-MS/MS analysis", "format": "ADME, Microsome", "details": "read-out: CLH"}, "Plasmodium falciparum [18]": {"tested_on": "Plasmodium falciparum", "experiment": "Antiplasmodial activity against CQ-resistant Plasmodium falciparum W2 assessed as inhibition of parasite growth measured after 48 hrs by SYBR Green 1 dye based fluorescence assay", "format": "functional, organism-based", "details": "W2, 48 h"}, "Cytochrome P450 3A4 [19]": {"biological_target": "T1, Cytochrome P450 3A4", "experiment": "Inhibition of CYP3A4 in human liver microsomes assessed as reduction in 1'-hydroxy midazolam formation using midazolam as substrate preincubated for 20 mins in absence of NADPH followed by incubation with substrate for 10 mins by LC-MS/MS analysis", "format": "ADME, Microsome"}, "[20]": {"experiment": "Cytotoxicity against human HFF cells assessed as reduction in cell viability incubated for 72 hrs by MTT assay", "format": "toxicity, cell-based"}, "Cytochrome P450 3A4 [21]": {"biological_target": "T1, Cytochrome P450 3A4", "experiment": "Inhibition of CYP3A4 in human liver microsomes assessed as reduction in 1'-hydroxy midazolam formation using midazolam as substrate preincubated for 20 mins in presence of NADPH followed by incubation with substrate for 10 mins by LC-MS/MS analysis", "format": "ADME, Microsome"}, "[22]": {"experiment": "Cytotoxicity against human THP-1 cells assessed as reduction in cell viability incubated for 72 hrs by MTT assay", "format": "toxicity, cell-based"}, "[23]": {"experiment": "Drug metabolism in mouse liver microsomes assessed as (1S)-2-amino-1-[2,8-bis(trifluoromethyl)quinolin-4-yl]ethan-1-ol metabolite formation measured after 5 mins by LC-MS analysis", "format": "ADME, Microsome"}, "[24]": {"experiment": "Selectivity index, ratio of IC50 for cytotoxicity against chinese hamster CHO cells to IC50 for antiplasmodial activity against Plasmodium falciparum 3D7 infected in human erythrocytes by HRP2-ELISA", "format": "toxicity, cell-based", "details": "read-out: Ratio IC50"}, "[25]": {"experiment": "Cytotoxicity against human HepG2 cells assessed as reduction in cell viability incubated for 72 hrs by MTT assay", "format": "toxicity, cell-based"}, "Plasmodium falciparum [26]": {"tested_on": "Plasmodium falciparum", "experiment": "Antiplasmodial activity CQ-resistant Plasmodium falciparum W2 infected in human erythrocytes assessed as inhibition of parasite growth measured after 72 hrs by HRP2-ELISA", "format": "functional, organism-based", "details": "W2, Erythrocyte"}, "[27]": {"biological_target": "Voltage-gated inwardly rectifying potassium channel KCNH2 (Homo sapiens, UniProt Q12809)", "sequence (Q12809 whole entry)": "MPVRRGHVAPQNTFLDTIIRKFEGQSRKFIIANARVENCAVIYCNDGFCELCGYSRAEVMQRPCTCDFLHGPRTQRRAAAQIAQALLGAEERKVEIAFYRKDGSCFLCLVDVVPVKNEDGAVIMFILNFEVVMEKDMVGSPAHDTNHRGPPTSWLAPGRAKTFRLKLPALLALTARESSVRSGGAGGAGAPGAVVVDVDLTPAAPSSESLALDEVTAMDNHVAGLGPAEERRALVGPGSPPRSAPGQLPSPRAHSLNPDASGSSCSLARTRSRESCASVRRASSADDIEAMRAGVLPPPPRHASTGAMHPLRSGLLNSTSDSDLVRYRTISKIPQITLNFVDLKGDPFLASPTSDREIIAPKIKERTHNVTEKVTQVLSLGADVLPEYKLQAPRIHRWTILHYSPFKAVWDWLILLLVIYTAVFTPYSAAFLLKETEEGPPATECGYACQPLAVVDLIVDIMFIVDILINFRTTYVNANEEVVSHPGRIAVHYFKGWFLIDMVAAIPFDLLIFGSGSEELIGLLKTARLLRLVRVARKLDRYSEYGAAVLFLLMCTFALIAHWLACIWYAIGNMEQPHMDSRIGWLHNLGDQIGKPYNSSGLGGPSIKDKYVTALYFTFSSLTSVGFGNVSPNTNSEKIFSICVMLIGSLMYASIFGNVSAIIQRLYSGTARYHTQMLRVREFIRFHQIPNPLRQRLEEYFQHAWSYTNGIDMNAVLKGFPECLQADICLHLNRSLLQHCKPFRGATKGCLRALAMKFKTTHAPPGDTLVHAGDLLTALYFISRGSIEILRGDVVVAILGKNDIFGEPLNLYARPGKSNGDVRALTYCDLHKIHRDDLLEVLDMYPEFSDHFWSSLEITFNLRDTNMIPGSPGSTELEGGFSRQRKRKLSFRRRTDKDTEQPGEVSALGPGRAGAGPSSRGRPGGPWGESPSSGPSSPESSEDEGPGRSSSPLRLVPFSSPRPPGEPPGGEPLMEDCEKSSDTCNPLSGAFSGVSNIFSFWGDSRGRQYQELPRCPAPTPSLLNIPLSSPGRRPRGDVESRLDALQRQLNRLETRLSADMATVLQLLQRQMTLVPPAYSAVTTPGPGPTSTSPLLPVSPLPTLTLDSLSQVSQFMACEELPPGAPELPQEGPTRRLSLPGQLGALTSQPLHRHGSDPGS", "experiment": "Inhibition of hERG channel expressed in CHO cells at holding potential of -80 mV by whole cell patch clamp method", "format": "toxicity, cell-based"}, "[28]": {"experiment": "Genotoxicity in CHO-K1 cells at 0.001 to 1 mM incubated for 24 hrs without metabolic activation by in vitro micronucleus test", "format": "toxicity, cell-based, Cricetulus griseus", "details": "chinese hamster, cho-k1, 24 h, 1000 µM, dose 0.001-1 mM"}, "[29]": {"experiment": "Selectivity index, ratio of IC50 for cytotoxicity against human HepG2 cells to IC50 for antiplasmodial activity against Plasmodium falciparum 3D7 infected in human erythrocytes by HRP2-ELISA", "format": "toxicity, cell-based", "details": "read-out: Ratio IC50"}, "[30]": {"experiment": "Drug metabolism in mouse liver microsomes assessed as (S)-2-(((S)-2-(2,8-Bis(trifluoromethyl)quinolin-4-yl)-2-hydroxyethyl)amino)-3-phenylpropan-1-ol metabolite formation measured after 5 mins by LC-MS analysis", "format": "ADME, Microsome"}, "[31]": {"experiment": "Selectivity index, ratio of IC50 for cytotoxicity against chinese hamster CHO cells to IC50 for antiplasmodial activity against CQ-susceptible Plasmodium falciparum 3D7 by SYBR Green 1 dye based fluorescence assay", "format": "toxicity, cell-based", "details": "CHO cells versus CQ-susceptible Plasmodium falciparum 3D7, read-out: Ratio IC50"}, "[32]": {"experiment": "Selectivity index, ratio of IC50 for cytotoxicity against human THP-1 cells to IC50 for antiplasmodial activity against CQ-susceptible Plasmodium falciparum 3D7 by SYBR Green 1 dye based fluorescence assay", "format": "toxicity, cell-based", "details": "THP-1 cells versus CQ-susceptible Plasmodium falciparum 3D7, read-out: Ratio IC50"}, "[33]": {"experiment": "Selectivity index, ratio of IC50 for cytotoxicity against human HFF cells to IC50 for antiplasmodial activity against CQ-susceptible Plasmodium falciparum 3D7 by SYBR Green 1 dye based fluorescence assay", "format": "toxicity, cell-based", "details": "HFF cells versus CQ-susceptible Plasmodium falciparum 3D7, read-out: Ratio IC50"}, "[34]": {"experiment": "Selectivity index, ratio of IC50 for cytotoxicity against human HepG2 cells to IC50 for antiplasmodial activity against CQ-susceptible Plasmodium falciparum 3D7 by SYBR Green 1 dye based fluorescence assay", "format": "toxicity, cell-based", "details": "HepG2 cells versus CQ-susceptible Plasmodium falciparum 3D7, read-out: Ratio IC50"}}, "data": [{"molecule": "COC[C@H](Cc1ccccc1)NC[C@@H](O)c1cc(C(F)(F)F)nc2c(C(F)(F)F)cccc12", "values": [{"measurement": "Drug metabolism", "setting": "[1]", "result": "Metabolite_Detected"}, {"measurement": "Ratio IC50", "setting": "Plasmodium falciparum [2]", "result": 1.35}, {"measurement": "Papp A→B at 2 h, 20 µM", "setting": "[3]", "result": 6.1, "unit": "×10⁻⁶ cm/s"}, {"measurement": "IC50", "setting": "Cytochrome P450 3A4 [4]", "result": 2.3, "unit": "µM"}, {"measurement": "microsomal CLint at 0.5 µM", "setting": "[5]", "result": "> 1000", "unit": "µL/min/mg"}, {"measurement": "IC50", "setting": "Plasmodium falciparum [6]", "result": 0.0151, "unit": "µM"}, {"measurement": "selectivity ratio", "setting": "[7]", "result": 1090}, {"measurement": "IC50", "setting": "Plasmodium falciparum [8]", "result": 0.0149, "unit": "µM"}, {"measurement": "microsomal CLint at 0.5 µM", "setting": "[9]", "result": "> 1000", "unit": "µL/min/mg"}, {"measurement": "Drug metabolism", "setting": "[10]", "result": "Metabolite_Detected"}, {"measurement": "Ratio IC50", "setting": "Plasmodium falciparum [11]", "result": 1.1}, {"measurement": "IC50", "setting": "Cytochrome P450 3A4 [12]", "result": 2.9, "unit": "µM"}, {"measurement": "selectivity ratio", "setting": "[13]", "result": 2970}, {"measurement": "IC50 at 24 h", "setting": "[14]", "result": 47.3, "unit": "µM"}, {"measurement": "Activity", "setting": "[15]", "result": "Non-Toxic"}, {"measurement": "recovery at 2 h, 20 µM", "setting": "[16]", "result": 81, "unit": "%"}, {"measurement": "microsomal CLint at 0.5 µM", "setting": "[17]", "result": "> 1000", "unit": "µL/min/mg"}, {"measurement": "IC50", "setting": "Plasmodium falciparum [18]", "result": 0.0132, "unit": "µM"}, {"measurement": "IC50", "setting": "Cytochrome P450 3A4 [19]", "result": 2.8, "unit": "µM"}, {"measurement": "IC50 at 72 h", "setting": "[20]", "result": 44.2, "unit": "µM"}, {"measurement": "IC50", "setting": "Cytochrome P450 3A4 [21]", "result": 5.9, "unit": "µM"}, {"measurement": "IC50 at 72 h", "setting": "[22]", "result": 16.2, "unit": "µM"}, {"measurement": "Drug metabolism", "setting": "[23]", "result": "Metabolite_Detected"}, {"measurement": "selectivity ratio", "setting": "[24]", "result": 3170}, {"measurement": "IC50 at 72 h", "setting": "[25]", "result": 11.6, "unit": "µM"}, {"measurement": "IC50", "setting": "Plasmodium falciparum [26]", "result": 0.011, "unit": "µM"}, {"measurement": "IC50", "setting": "[27]", "result": 17.3, "unit": "µM"}, {"measurement": "Activity", "setting": "[28]", "result": "Non-Toxic"}, {"measurement": "selectivity ratio", "setting": "[29]", "result": 778}, {"measurement": "Drug metabolism", "setting": "[30]", "result": "Metabolite_Detected"}]}, {"molecule": "O[C@@H](CNCCN1CCN(C(c2ccccc2)c2ccccc2)CC1)c1cc(C(F)(F)F)nc2c(C(F)(F)F)cccc12", "values": [{"measurement": "selectivity ratio", "setting": "[31]", "result": 226}, {"measurement": "IC50", "setting": "Plasmodium falciparum [6]", "result": 0.0451, "unit": "µM"}, {"measurement": "Ratio IC50", "setting": "Plasmodium falciparum [11]", "result": 0.6}, {"measurement": "IC50 at 24 h", "setting": "[14]", "result": 10.2, "unit": "µM"}, {"measurement": "IC50", "setting": "Plasmodium falciparum [18]", "result": 0.0765, "unit": "µM"}, {"measurement": "selectivity ratio", "setting": "[32]", "result": 168}, {"measurement": "IC50 at 72 h", "setting": "[20]", "result": 13.9, "unit": "µM"}, {"measurement": "IC50 at 72 h", "setting": "[22]", "result": 7.6, "unit": "µM"}, {"measurement": "IC50 at 72 h", "setting": "[25]", "result": 3.3, "unit": "µM"}, {"measurement": "selectivity ratio", "setting": "[33]", "result": 308}, {"measurement": "selectivity ratio", "setting": "[34]", "result": 73}]}]}
